The structures appear in SMILES notation. Read-outs that look alike come from different tables or passages of the source.

Common to all, as to experiment: biochemical
Holding throughout (assay type): binding

Assay [1] concerns the target T1, cellular kinases of SH-SY5Y cells (Homo sapiens, UniProt Q9Y6E0).
T1 construct: endogenous in cells; host or cells: SH-SY5Y
Particulars: 2µM; SH-SY5Y cells; Labeling Site Lys2; DIKAANVLLSEHGEVK; read-out: KiNativ in-cell binding, % Inhibition, STK24/MST3. An excerpt: (§1) As KINOMEscan is an in vitro assay, and as different cell types have variable kinase expression profiles we sought to determine the kinase binding profile in our SH-SY5Y TFEB-relocalization cell model. […] Bound kinases were pulled down and analyzed by mass spectrometry to determine the in situ kinase binding profile for each compound.

The target of assay [2] is cellular kinases of SH-SY5Y cells (Homo sapiens, UniProt O43318). Particulars: 2µM; SH-SY5Y cells; Labeling Site Lys2; DLKPPNLLLVAGGTVLK; read-out: KiNativ in-cell binding, % Inhibition, MAP3K7.
Source text: as §1

Assay [3] has as its target cellular kinases of SH-SY5Y cells (Homo sapiens, UniProt P43405).
Source text: as §1

In assay [4] the target is cellular kinases of SH-SY5Y cells (Homo sapiens, UniProt P41240). The conditions noted are these: 2µM, SH-SY5Y cells, read-out: KiNativ in-cell binding, % Inhibition, CSK.
Source text: as §1

Assay [5] addresses cellular kinases of SH-SY5Y cells (Homo sapiens, UniProt P29323). The conditions noted are these: 2µM; SH-SY5Y cells; Labeling Site Activation Loop; FLEDDTSDPTYTSALGGKIPIR; read-out: KiNativ in-cell binding, % Inhibition, EphB2.
Source text: as §1

Assay [6] has as its target cellular kinases of SH-SY5Y cells (Homo sapiens, UniProt P06493). The conditions noted are these: 2µM; SH-SY5Y cells; Labeling Site Lys2; DLKPQNLLIDDK; read-out: KiNativ in-cell binding, % Inhibition, CDK1/CDC2.
Source text: as §1

The target in assay [7] is cellular kinases of SH-SY5Y cells (Homo sapiens, UniProt P42338). Particulars: 2µM; SH-SY5Y cells; Labeling Site ATP; VFGEDSVGVIFKNGDDLRQDMLTLQMLR; read-out: KiNativ in-cell binding, % Inhibition, PIK3CB.
Source text: as §1

For assay [8], the target named is cellular kinases of SH-SY5Y cells (Homo sapiens, UniProt P78368). The conditions noted are these: 2µM; SH-SY5Y cells; Labeling Site Lys2; DVKPENFLVGRPGTK; read-out: KiNativ in-cell binding, % Inhibition, CSNK1G2/CK1g2.
Source text: as §1

Assay [9] deals with T2, cellular kinases of SH-SY5Y cells (Homo sapiens, UniProt Q13523).
T2 construct: endogenous in cells; host or cells: SH-SY5Y
The conditions noted are these: 2µM; SH-SY5Y cells; Labeling Site Lys2; CNILHADIKPDNILVNESK; read-out: KiNativ in-cell binding, % Inhibition, PRPF4B.
Source text: as §1

The target in assay [10] is cellular kinases of SH-SY5Y cells (Homo sapiens, UniProt P49841). The conditions noted are these: read-out: KiNativ in-cell binding, % Inhibition, GSK3B.
Source text: as §1

Assay [11] addresses T3, cellular kinases of SH-SY5Y cells (Homo sapiens, UniProt Q12851).
T3 construct: endogenous in cells; host or cells: SH-SY5Y
The conditions noted are these: 2µM; SH-SY5Y cells; Labeling Site Lys2; DIKGANLLLTLQGDVK; read-out: KiNativ in-cell binding, % Inhibition, GCK.
Source text: as §1

Assay [12] addresses cellular kinases of SH-SY5Y cells (Homo sapiens, UniProt P51812). The conditions noted are these: 2µM; SH-SY5Y cells; Labeling Site Lys2; DLKPSNILYVDESGNPESIR; read-out: KiNativ in-cell binding, % Inhibition, RPS6KA3/RSK2 domain2.
Source text: as §1

For assay [13], the target named is cellular kinases of SH-SY5Y cells (Homo sapiens, UniProt Q96GD4). Particulars: 2µM; SH-SY5Y cells; Labeling Site Lys1; SHFIVALKVLFK; read-out: KiNativ in-cell binding, % Inhibition, AURKB/AurB.
Source text: as §1

Assay [14] deals with cellular kinases of SH-SY5Y cells (Homo sapiens, UniProt P68400). Particulars: 2µM; SH-SY5Y cells; labeling site Protein Kinase Domain; peptide GGPNIITLADIVKDPVSR
Source text: as §1

For assay [15], the target named is T4, cellular kinases of SH-SY5Y cells (Homo sapiens, UniProt Q96GX5).
T4 construct: endogenous in cells; host or cells: SH-SY5Y
Particulars: 2µM, SH-SY5Y cells, read-out: KiNativ in-cell binding, % Inhibition, MASTL.
Source text: as §1

Assay [16] concerns the target cellular kinases of SH-SY5Y cells (Homo sapiens, UniProt P54760). The conditions noted are these: 2µM; SH-SY5Y cells; Labeling Site Activation Loop; FLEENSSDPTYTSSLGGKIPIR; read-out: KiNativ in-cell binding, % Inhibition, EphB4.
Source text: as §1

Assay [17] deals with cellular kinases of SH-SY5Y cells (Homo sapiens, UniProt P27361). Particulars: 2µM; SH-SY5Y cells; Labeling Site Lys2; DLKPSNLLINTTCDLK; read-out: KiNativ in-cell binding, % Inhibition, MAPK3/Erk1.
Source text: as §1

For assay [18], the target named is T5, cellular kinases of SH-SY5Y cells (Homo sapiens, UniProt O14936).
T5 construct: endogenous in cells; host or cells: SH-SY5Y
Particulars: 2µM; SH-SY5Y cells; Labeling Site Lys1; ETGQQFAVKIVDVAK; read-out: KiNativ in-cell binding, % Inhibition, CASK.
Source text: as §1

Assay [19] addresses cellular kinases of SH-SY5Y cells (Homo sapiens, UniProt O14757). The conditions noted are these: 2µM; SH-SY5Y cells; Labeling Site Lys2; DIKPENLLLDER; read-out: KiNativ in-cell binding, % Inhibition, CHEK1/CHK1.
Source text: as §1

The target of assay [20] is cellular kinases of SH-SY5Y cells (Homo sapiens, UniProt Q13043). The conditions noted are these: 2µM; SH-SY5Y cells; Labeling Site Lys1; ETGQIVAIKQVPVESDLQEIIK; read-out: KiNativ in-cell binding, % Inhibition, STK4/MST1.
Source text: as §1

T4 sequence (Q96GX5 whole entry): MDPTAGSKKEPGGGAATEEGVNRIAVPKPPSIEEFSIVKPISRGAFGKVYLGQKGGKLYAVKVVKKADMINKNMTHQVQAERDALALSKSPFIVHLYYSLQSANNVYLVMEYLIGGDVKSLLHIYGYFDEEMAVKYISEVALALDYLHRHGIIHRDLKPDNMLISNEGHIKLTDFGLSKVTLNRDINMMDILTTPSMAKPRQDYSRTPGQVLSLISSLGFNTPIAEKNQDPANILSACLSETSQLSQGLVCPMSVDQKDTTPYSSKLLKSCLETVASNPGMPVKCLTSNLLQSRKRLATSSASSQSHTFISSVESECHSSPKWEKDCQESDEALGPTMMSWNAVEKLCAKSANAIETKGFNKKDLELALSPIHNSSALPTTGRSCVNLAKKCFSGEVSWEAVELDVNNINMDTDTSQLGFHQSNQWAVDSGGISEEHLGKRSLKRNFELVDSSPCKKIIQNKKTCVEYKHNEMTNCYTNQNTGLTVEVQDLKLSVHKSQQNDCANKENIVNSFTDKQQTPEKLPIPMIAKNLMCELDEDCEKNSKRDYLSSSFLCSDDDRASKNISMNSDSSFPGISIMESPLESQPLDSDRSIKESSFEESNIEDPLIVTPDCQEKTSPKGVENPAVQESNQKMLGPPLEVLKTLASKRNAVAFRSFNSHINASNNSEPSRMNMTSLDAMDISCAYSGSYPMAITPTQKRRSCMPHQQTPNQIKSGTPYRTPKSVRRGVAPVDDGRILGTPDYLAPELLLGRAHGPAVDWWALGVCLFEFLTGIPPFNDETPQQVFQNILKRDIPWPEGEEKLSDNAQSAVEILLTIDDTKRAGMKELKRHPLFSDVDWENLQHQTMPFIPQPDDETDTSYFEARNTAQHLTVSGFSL
Sequence of cellular kinases of SH-SY5Y cells (Homo sapiens, UniProt P41240) (P41240 whole entry): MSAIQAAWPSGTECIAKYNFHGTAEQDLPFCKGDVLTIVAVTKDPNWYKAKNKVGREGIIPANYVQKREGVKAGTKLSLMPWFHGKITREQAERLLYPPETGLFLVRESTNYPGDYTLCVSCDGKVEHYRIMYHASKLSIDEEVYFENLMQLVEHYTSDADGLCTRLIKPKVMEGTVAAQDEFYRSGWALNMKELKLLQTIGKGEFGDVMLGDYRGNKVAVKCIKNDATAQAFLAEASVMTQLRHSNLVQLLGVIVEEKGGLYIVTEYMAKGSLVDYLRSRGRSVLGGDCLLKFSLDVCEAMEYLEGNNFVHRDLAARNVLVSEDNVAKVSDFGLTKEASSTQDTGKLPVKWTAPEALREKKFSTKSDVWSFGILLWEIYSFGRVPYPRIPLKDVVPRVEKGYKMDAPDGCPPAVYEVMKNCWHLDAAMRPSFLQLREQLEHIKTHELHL
Sequence of cellular kinases of SH-SY5Y cells (Homo sapiens, UniProt P42338) (P42338 whole entry): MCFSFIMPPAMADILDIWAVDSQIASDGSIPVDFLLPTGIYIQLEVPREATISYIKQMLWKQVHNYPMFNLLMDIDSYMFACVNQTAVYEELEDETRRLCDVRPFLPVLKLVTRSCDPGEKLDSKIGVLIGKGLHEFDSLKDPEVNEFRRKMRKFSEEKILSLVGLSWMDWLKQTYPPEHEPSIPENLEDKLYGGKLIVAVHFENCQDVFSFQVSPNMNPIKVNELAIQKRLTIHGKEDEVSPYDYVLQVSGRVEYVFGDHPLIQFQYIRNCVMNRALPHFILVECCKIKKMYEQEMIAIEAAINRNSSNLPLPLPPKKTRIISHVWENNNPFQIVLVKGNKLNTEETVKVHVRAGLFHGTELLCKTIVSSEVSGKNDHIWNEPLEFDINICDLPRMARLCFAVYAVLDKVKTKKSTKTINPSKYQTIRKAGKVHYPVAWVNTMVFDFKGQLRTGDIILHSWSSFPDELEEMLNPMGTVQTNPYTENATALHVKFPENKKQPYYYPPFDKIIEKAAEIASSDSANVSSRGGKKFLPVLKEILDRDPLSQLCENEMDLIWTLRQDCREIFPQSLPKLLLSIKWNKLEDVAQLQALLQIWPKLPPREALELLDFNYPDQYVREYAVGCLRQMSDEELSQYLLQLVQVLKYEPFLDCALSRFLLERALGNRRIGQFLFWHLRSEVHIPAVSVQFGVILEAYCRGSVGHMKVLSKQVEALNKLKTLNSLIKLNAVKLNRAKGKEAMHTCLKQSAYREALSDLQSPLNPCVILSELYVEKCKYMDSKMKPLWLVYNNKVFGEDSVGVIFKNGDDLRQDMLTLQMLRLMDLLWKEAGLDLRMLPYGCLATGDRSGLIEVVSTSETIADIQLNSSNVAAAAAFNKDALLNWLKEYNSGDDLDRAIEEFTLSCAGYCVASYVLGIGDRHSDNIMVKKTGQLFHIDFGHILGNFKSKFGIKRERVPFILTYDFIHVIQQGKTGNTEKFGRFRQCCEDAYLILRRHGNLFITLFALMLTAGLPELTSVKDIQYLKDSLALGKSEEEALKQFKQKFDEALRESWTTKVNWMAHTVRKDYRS
T2 sequence (Q13523 whole entry): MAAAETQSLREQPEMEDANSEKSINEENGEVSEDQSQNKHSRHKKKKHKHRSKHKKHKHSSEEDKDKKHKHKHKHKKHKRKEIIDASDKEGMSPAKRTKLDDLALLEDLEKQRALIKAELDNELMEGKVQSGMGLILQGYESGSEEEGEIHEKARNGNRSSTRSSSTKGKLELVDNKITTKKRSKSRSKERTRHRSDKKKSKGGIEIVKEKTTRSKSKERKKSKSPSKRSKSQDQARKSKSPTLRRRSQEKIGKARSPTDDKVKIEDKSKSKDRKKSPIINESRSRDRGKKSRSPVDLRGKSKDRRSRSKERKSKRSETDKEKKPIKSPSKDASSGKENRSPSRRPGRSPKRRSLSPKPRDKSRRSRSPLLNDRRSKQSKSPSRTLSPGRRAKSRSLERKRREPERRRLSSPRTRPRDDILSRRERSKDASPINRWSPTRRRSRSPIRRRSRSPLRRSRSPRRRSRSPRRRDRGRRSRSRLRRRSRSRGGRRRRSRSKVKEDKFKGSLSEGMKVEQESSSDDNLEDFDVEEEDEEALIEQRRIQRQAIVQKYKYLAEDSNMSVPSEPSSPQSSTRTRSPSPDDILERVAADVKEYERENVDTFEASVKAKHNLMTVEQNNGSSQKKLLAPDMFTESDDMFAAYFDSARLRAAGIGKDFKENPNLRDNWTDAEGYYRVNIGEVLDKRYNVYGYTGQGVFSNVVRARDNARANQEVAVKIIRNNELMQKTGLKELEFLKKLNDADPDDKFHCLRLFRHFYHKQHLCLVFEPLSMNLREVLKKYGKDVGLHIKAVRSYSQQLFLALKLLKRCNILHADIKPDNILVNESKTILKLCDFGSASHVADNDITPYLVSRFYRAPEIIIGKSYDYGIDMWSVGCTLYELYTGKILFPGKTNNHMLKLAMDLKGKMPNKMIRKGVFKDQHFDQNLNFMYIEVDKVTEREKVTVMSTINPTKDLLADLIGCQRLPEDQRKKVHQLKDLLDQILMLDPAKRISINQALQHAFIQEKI
Sequence of cellular kinases of SH-SY5Y cells (Homo sapiens, UniProt P78368) (P78368 whole entry): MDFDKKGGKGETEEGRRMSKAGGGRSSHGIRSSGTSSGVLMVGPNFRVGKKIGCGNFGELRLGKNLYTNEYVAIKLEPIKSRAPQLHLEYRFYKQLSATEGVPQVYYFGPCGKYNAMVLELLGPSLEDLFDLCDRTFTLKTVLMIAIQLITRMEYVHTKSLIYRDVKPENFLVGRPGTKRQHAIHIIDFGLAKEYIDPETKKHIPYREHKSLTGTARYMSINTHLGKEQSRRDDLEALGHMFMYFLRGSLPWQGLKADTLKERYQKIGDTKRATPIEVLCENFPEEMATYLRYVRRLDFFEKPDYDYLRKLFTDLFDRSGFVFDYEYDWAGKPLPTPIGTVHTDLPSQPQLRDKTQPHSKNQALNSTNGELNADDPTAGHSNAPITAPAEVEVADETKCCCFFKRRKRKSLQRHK
Sequence of cellular kinases of SH-SY5Y cells (Homo sapiens, UniProt O43318) (O43318 whole entry): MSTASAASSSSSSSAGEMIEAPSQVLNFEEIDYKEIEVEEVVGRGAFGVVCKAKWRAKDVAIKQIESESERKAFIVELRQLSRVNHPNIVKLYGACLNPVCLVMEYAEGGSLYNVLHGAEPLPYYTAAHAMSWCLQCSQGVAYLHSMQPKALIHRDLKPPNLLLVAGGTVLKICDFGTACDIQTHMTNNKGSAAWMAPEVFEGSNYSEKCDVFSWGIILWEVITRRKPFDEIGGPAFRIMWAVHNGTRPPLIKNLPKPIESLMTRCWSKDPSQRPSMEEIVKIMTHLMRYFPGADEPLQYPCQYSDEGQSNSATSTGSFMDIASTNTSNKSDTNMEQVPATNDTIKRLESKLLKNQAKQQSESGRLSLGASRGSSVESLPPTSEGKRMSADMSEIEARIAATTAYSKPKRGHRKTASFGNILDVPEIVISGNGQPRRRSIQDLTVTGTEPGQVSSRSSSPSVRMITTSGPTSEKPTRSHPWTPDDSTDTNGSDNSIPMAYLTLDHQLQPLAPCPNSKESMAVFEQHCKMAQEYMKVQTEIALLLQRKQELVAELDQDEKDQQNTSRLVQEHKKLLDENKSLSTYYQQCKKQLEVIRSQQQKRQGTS
Sequence of cellular kinases of SH-SY5Y cells (Homo sapiens, UniProt P49841) (P49841 whole entry): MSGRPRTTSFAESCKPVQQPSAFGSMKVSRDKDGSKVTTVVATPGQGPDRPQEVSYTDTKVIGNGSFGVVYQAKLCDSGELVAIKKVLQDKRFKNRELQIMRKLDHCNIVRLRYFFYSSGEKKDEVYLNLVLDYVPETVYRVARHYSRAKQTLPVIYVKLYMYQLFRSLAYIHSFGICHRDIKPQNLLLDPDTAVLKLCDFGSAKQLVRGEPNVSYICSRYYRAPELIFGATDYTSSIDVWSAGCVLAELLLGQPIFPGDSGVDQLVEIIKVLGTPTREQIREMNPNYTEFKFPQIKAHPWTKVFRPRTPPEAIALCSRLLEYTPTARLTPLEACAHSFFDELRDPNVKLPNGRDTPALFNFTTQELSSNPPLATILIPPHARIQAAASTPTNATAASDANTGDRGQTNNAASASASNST

Regarding `Cc1cccc(-c2nc(Nc3ccc4ncsc4c3)c3ccccc3n2)n1` [NK140], the inhibition at 2 µM was 28.7% in [1]; 8.7% in assay [2]; 0.443% in assay [3] (2µM, SH-SY5Y cells, Labeling Site Activation Loop, AQTHGKWPVK, read-out: KiNativ in-cell binding, % Inhibition, SYK); 21.6% in assay [4] (Labeling Site Activation Loop, VSDFGLTKEASSTQDTGKLPVK); 4.7% in assay [4] (Labeling Site Lys1, VAVKCIK); -8.7% in assay [5]. Besides, the inhibition at 2 µM in assay [6] was -2.3%; in assay [7] it was -11.4%; in [8], 1.8%; in assay [9], 32.3%; in assay [10] it was 15.8%; in [11], 11.6%. For the same compound, the inhibition at 2 µM in assay [12] was -54.8%; in [13] it was 27.7%; in assay [15] (Labeling Site ATP Loop, GAFGKVYLGQK), 4.2%; in [15] (Labeling Site Lys1, LYAVKVVK), -7.7%; in assay [16] it was -33.5%; in assay [17] it was 32.4%. Further, the inhibition at 2 µM in [18] stood at 43%; in assay [19], 16%; in assay [20], 39%. Besides, the “KiNativ in-cell binding, SYK” value in [3] is -121.1; in assay [3] (2µM, SH-SY5Y cells, labeling site Activation Loop, peptide ISDFGLSKALR) it was -15.0. Further, the “KiNativ in-cell binding, CSNK2A1” value in [14] was found to be 31.0.

The record behind these values is paper PMC9851200, “Multiparameter phenotypic screening for endogenous TFEB and TFE3 translocation identifies novel chemical series modulating lysosome function” (Autophagy, 2022).
